Data on three compounds can be found in ChEMBL document CHEMBL5512645, “A novel antimicrobial peptide with broad-spectrum and exceptional stability derived from the natural peptide Brevicidine” (Eur J Med Chem, 2024).

Data set [1] concerns Pseudomonas aeruginosa. Briefly: Bactericidal activity against Pseudomonas aeruginosa ATCC 27853 assessed as assessed as eradication of bacterial cells at 2 to 4 times MIC measured after 10 mins by time killing analysis. It is filed as functional, organism-based.
Data set [2] can be described thus: Toxicity in male BALB/c mouse assessed as survival rate at 62.6 mg/kg, ip measured after 6 days relative to control. Type of data set: organism-based. The note with it: in vivo, time 6 day.
Data set [3] deals with Staphylococcus aureus. The data set is described as follows: Antibacterial activity against Staphylococcus aureus ATCC 25923 pretreated with 10% mouse serum followed by compound addition and measured after 1 hr by broth microdilution method (reference value: 8 microM). It is filed as functional.
The nature of data set [4]: Toxicity in male BALB/c mouse assessed as lethal dose administered as ip measured after 7 days. It is filed as organism-based. The settings on record: male, BALB/c, in vivo, time 7 day.
In data set [5] the test system is Staphylococcus aureus. Briefly: Antibacterial activity against Staphylococcus aureus ATCC 25923 pretreated with Na-cl followed by compound addition and measured after 2 hrs by broth microdilution method (reference value: 8 microM). It is filed as functional. (Dilution methods test growth across graded concentrations, often in twofold steps.)
Data set [6] is described as follows: Toxicity in male BALB/c mouse assessed as survival rate at 90.9 mg/kg, ip measured after 6 days relative to control. Type of data set: organism-based. The note with it: in vivo, time 6 day.
The nature of data set [7]: Toxicity in male BALB/c mouse assessed as hemorrhage in kidney at 46.88 mg/kg, ip administered as single dose by H and E staining based analysis. It is filed as organism-based. The settings on record: in vivo.
In data set [8] the test system is Staphylococcus aureus. The data set is described as follows: Antibiofilm activity against Staphylococcus aureus ATCC 25923 assessed as biofilm eradication at 1/2 to 4 times MIC measured after 24 hrs by crystal violet staining based analysis. It is filed as functional, organism-based.
In data set [9] the test system is Staphylococcus aureus. Briefly: Antibacterial activity against Staphylococcus aureus ATCC 25923 assessed as fold increase in MIC pretreated with MgCl2 followed by compound addition and measured after 2 hrs by broth microdilution method. It is filed as functional.
The test system of data set [10] is Staphylococcus aureus. The data set is described as follows: Antibacterial activity against Staphylococcus aureus ATCC 25923 pretreated with 20% mouse serum followed by compound addition and measured after 1 hr by broth microdilution method (reference value: 8 microM). It is filed as functional.
Data set [11] can be described thus: Toxicity in male BALB/c mouse assessed as survival rate at 42.6 mg/kg, ip measured after 6 days relative to control. Type of data set: organism-based. The settings on record: in vivo, time 6 day.
Data set [12] has as its system Staphylococcus aureus. Briefly: Bactericidal activity against Staphylococcus aureus ATCC 25923 assessed as assessed as eradication of bacterial cells at 1 to 4 times MIC measured after 0.5 to 1 hr by time killing analysis. It is filed as functional, organism-based. The settings on record: time 0.5-1 hrs.
Data set [13] deals with Pseudomonas aeruginosa. The data set is described as follows: Induction of morphological changes in Pseudomonas aeruginosa ATCC 27853 assessed as aggregation at 2 times MIC measured after 0.5 hrs by SEM based analysis. Type of data set: functional, organism-based.
The subject of data set [14] is Staphylococcus aureus. Briefly: Antibacterial activity against Staphylococcus aureus ATCC 25923 pretreated with 5% mouse serum followed by compound addition and measured after 1 hr by broth microdilution method (reference value: 8 microM). Type of data set: functional.
Data set [15] has as its system Pseudomonas aeruginosa. The data set is described as follows: Antibacterial activity against Pseudomonas aeruginosa ATCC 27853 assessed as fold increase in MIC pretreated with 2.5 to 20% mouse serum followed by compound addition and measured after 6 hr by broth microdilution method. It is filed as functional.
Data set [16] relates to Staphylococcus aureus. Briefly: Induction of morphological changes in Staphylococcus aureus ATCC 25923 assessed as leakage of cellular content at 2 times MIC measured after 0.5 hrs by SEM based analysis. Type of data set: functional, organism-based.
Data set [17] deals with Cell membrane. The data set is described as follows: Induction of cytoplasmic membrane depolarization in Staphylococcus aureus ATCC 25923 assessed as increase in fluorescence intensity at 1/2 to 4 times MIC measured within 1 min by DiSC3-5 dye based fluorescence method. Type of data set: cell membranes.
Data set [18] concerns Pseudomonas aeruginosa. The data set is described as follows: Bactericidal activity against Pseudomonas aeruginosa ATCC 27853 assessed as assessed as eradication of bacterial cells at 1/2 to 1 times MIC measured after 1 hr by time killing analysis relative to control. It is filed as functional.
The subject of data set [19] is Staphylococcus aureus. The data set is described as follows: Antibacterial activity against Staphylococcus aureus ATCC 25923 pretreated with 20% mouse serum followed by compound addition and measured after 1 hr by broth microdilution method (reference value: 64 microM). It is filed as functional.
The subject of data set [20] is Staphylococcus aureus. Briefly: Induction of morphological changes in Staphylococcus aureus ATCC 25923 assessed as membrane rupture at 2 times MIC measured after 0.5 hrs by SEM based analysis. It is filed as functional, organism-based.
In data set [21] the test system is Staphylococcus aureus. The data set is described as follows: Antibacterial activity against Staphylococcus aureus ATCC 25923 pretreated with 5% mouse serum followed by compound addition and measured after 1 hr by broth microdilution method (reference value: 64 microM). Type of data set: functional.
Data set [22] concerns Staphylococcus aureus. Briefly: Antibacterial activity against Staphylococcus aureus ATCC 25923 pretreated with Fecl3 followed by compound addition and measured after 2 hrs by broth microdilution method (reference value: 64 microM). Type of data set: functional.
The subject of data set [23] is Cell membrane. Briefly: Induction of cytoplasmic membrane depolarization in Pseudomonas aeruginosa ATCC 27853 assessed as increase in fluorescence intensity at 2 to 4 times MIC measured upto 12 min by DiSC3-5 dye based fluorescence method. It is filed as cell membranes.
Data set [24] deals with Staphylococcus aureus. The data set is described as follows: Antibacterial activity against Staphylococcus aureus ATCC 25923 pretreated with 2.5% mouse serum followed by compound addition and measured after 1 hr by broth microdilution method (reference value: 64 microM). It is filed as functional.
Data set [25] has as its system Staphylococcus aureus. The data set is described as follows: Antibacterial activity against Staphylococcus aureus ATCC 25923 pretreated with 20% mouse serum followed by compound addition and measured after 6 hrs by broth microdilution method (reference value: 64 microM). Type of data set: functional.
Data set [26] has as its system Staphylococcus aureus. The data set is described as follows: Antibacterial activity against Staphylococcus aureus ATCC 25923 pretreated with FeCl3 followed by compound addition and measured after 2 hrs by broth microdilution method (reference value: 16 microM). It is filed as functional, organism-based.
The test system of data set [27] is Cell membrane. Briefly: Induction of cytoplasmic membrane depolarization in Pseudomonas aeruginosa ATCC 27853 assessed as increase in fluorescence intensity at 4 times MIC measured upto 12 min by DiSC3-5 dye based fluorescence method. Type of data set: cell membranes.
In data set [28] the test system is Staphylococcus aureus. The data set is described as follows: Antibacterial activity against Staphylococcus aureus ATCC 25923 at sub-MIC measured after 6 days. Type of data set: functional, organism-based. The settings on record: time 6.0 day.
Data set [29] relates to Staphylococcus aureus. The data set is described as follows: Antibacterial activity against Staphylococcus aureus ATCC 25923 pretreated with ZnCl2 followed by compound addition and measured after 2 hrs by broth microdilution method (reference value: 16 microM). It is filed as functional, organism-based.
Data set [30] relates to Staphylococcus aureus. The data set is described as follows: Antibacterial activity against Staphylococcus aureus ATCC 25923 pretreated with Na-cl followed by compound addition and measured after 2 hrs by broth microdilution method (reference value: 16 microM). It is filed as functional, organism-based.
The subject of data set [31] is Pseudomonas aeruginosa. Briefly: Bactericidal activity against Pseudomonas aeruginosa ATCC 27853 assessed as assessed as eradication of bacterial cells at 2 to 4 times MIC measured after 0.5 hr by time killing analysis relative to control. It is filed as functional, organism-based.
The test system of data set [32] is Staphylococcus aureus. The data set is described as follows: Antibacterial activity against Staphylococcus aureus ATCC 25923 pretreated with 20% mouse serum followed by compound addition and measured after 6 hrs by broth microdilution method (reference value: 16 microM). Type of data set: functional, organism-based.
For data set [33], the system named is Staphylococcus aureus. Briefly: Antibacterial activity against Staphylococcus aureus ATCC 25923 pretreated with 10% mouse serum followed by compound addition and measured after 1 hr by broth microdilution method (reference value: 16 microM). It is filed as functional, organism-based.
Data set [34] deals with Cell membrane. The data set is described as follows: Induction of outer membrane permeabilization in Pseudomonas aeruginosa ATCC 27853 assessed increase in fluorescence intensity at 1/2 to 4 times MIC by fluorescence based NPN uptake assay. Type of data set: cell membranes. The note with it: time <= 12.0 min, TDE = time-dependent effect.
Data set [35] has as its system Staphylococcus aureus. The data set is described as follows: Antibacterial activity against Staphylococcus aureus ATCC 25923 pretreated with Mgcl2 followed by compound addition and measured after 2 hrs by broth microdilution method (reference value: 16 microM). Type of data set: functional, organism-based.
Data set [36] has as its system Staphylococcus aureus. Briefly: Antibacterial activity against Staphylococcus aureus ATCC 25923 pretreated with 20% mouse serum followed by compound addition and measured after 1 hr by broth microdilution method (reference value: 16 microM). Type of data set: functional, organism-based.

Converted amounts (≈) assume the structure as drawn. The source made the active and inactive calls. The calls are words filed in the database; no cut-off is given here. Bridge positions count the residues as written; N and C are the ends. Square brackets hold non-standard residues; d marks the D form. Peptide text beside a SMILES is read from it. * marks the point of attachment. ξ: configuration not given here. Hexanoyl(4ξ-Me) = CCC(C)CCC(=O)*; dOrn = NCCC[C@@H](N)C(=O)O; Orn = NCCC[C@H](N)C(=O)O A value given as a limit tells only on which side of the number the result lay.

A word on the MIC: it is the lowest concentration that inhibits growth of the organism. Usually LD50 stands for the dose expected to kill half of the subjects tested. Turning to `CCCCCCCCCC(=O)N[C@H](CCCN)C(=O)N[C@H](Cc1ccc(O)cc1)C(=O)N[C@H](Cc1c[nH]c2ccccc12)C(=O)N[C@H](CCCN)C(=O)N[C@@H](CCCN)C(=O)NCC(=O)N[C@H](CCCN)C(=O)N[C@@H](Cc1c[nH]c2ccccc12)C(=O)N[C@H](C(=O)N[C@H](C(=O)NCC(=O)N[C@@H](CO)C(=O)O)[C@@H](C)CC)[C@@H](C)O`, the outcome in data set [1], in [8], in data set [12] and in [13] was Active. The results for the survival at 144 h in data set [2], in [6] and in [11] were 12.5%, 12.5% and 50%, respectively. Further, the MIC in [3] was 32 µM (≈ 50.6 µg/mL); in [5] it was 16 µM (≈ 25.3 µg/mL); in data set [10], over 128 µM; in data set [14], 16 µM (≈ 25.3 µg/mL). Besides, in data set [4], the LD50 at 168 h amounted to 46.9 mg/kg. Moreover, the Activity result in data set [7] is “Toxic”. The “fold change (FC)” value in data set [9] was 2.
Regarding `CCC(C)CCC(=O)N[C@H](CC(N)=O)C(=O)N[C@H](Cc1ccc(O)cc1)C(=O)N[C@H](Cc1c[nH]c2ccccc12)C(=O)N[C@H](CCCN)C(=O)N[C@@H](CCCN)C(=O)NCC(=O)N[C@H](CCCN)C(=O)N[C@@H](Cc1c[nH]c2ccccc12)C(=O)N[C@@H]1C(=O)N[C@@H]([C@@H](C)CC)C(=O)NCC(=O)N[C@@H](CO)C(=O)O[C@@H]1C` (stereo partly specified) ({Hexanoyl(4ξ-Me)}-[dN][dY][dW][dOrn][Orn]G[dOrn]WTIGS; ester 9-C), in [15], the “fold change (FC)” value stood at 4. Moreover, the outcome in data set [16], in [17], in [20] and in [23] was Active. For the same compound, the Activity in [18] amounted to 100%. Further, the minimum inhibitory concentration (MIC) in data set [19] is 128 µM (≈ 195 µg/mL); in data set [21] it was 64 µM (≈ 97.3 µg/mL); in [22], 64 µM (≈ 97.3 µg/mL); in data set [24], 64 µM (≈ 97.3 µg/mL); in [25], 128 µM (≈ 195 µg/mL).
As for POLYMYXIN B, the MIC in [26] stood at 8 µM; in data set [29], 32 µM; in data set [30] it was 16 µM; in [32] it was 16 µM; in data set [33], 16 µM; in [35], 8 µM. Moreover, the minimum inhibitory concentration (MIC) in [36] was 16 µM. Further, the outcome in data set [27] and in [28] was inactive. Besides, the Activity in data set [31] is 100%; in data set [34] it was “Tde”.
